In ChEMBL document CHEMBL4433259, “Rifamycin derivatives active against pathogenic rapidly-growing mycobacteria” (Bioorg Med Chem Lett, 2019):
Activity calls are given as the source filed them. The rule behind the calls is not given here.

Columns and labels:
[1] = system: Mycobacteroides abscessus; assay: Antimycobacterial activity against Mycobacterium abscessus FM0058 clinical isolate assessed as inhibition zone diameter at 100 ng after 3 days by disc diffusion method; format: functional
[2] = system: Mycobacteroides abscessus; assay: Antimycobacterial activity against Mycobacterium abscessus ATCC 19977 assessed as inhibition zone diameter at 3.125 ng after 3 days by disc diffusion method; format: functional
[3] = system: Mycobacteroides abscessus; assay: Antimycobacterial activity against Mycobacterium abscessus FM0058 clinical isolate assessed as inhibition zone diameter at 3.125 ng after 3 days by disc diffusion method; format: functional
[4] = system: Mycobacteroides abscessus; assay: Antimycobacterial activity against Mycobacterium abscessus ATCC 19977 assessed as inhibition zone diameter at 6.25 ng after 3 days by disc diffusion method; format: functional
[5] = system: Mycobacteroides abscessus; assay: Antimycobacterial activity against Mycobacterium abscessus FM0058 clinical isolate assessed as inhibition zone diameter at 12.5 ng after 3 days by disc diffusion method; format: functional
[6] = Antimycobacterial activity against Mycobacterium abscessus subsp. bolletii assessed as reduction in microbial growth by CLSI method; format: functional; conditions: Mycobacteroides abscessus
[7] = system: Mycobacteroides abscessus; assay: Antimycobacterial activity against Mycobacterium abscessus FM0058 clinical isolate assessed as inhibition zone diameter at 50 ng after 3 days by disc diffusion method; format: functional
[8] = system: Mycobacteroides abscessus; assay: Antimycobacterial activity against Mycobacterium abscessus FM0058 clinical isolate assessed as inhibition zone diameter at 1.56 ng after 3 days by disc diffusion method; format: functional
Mycobacteroides chelonae = assay: Antimycobacterial activity against Mycobacterium chelonae assessed as reduction in microbial growth by CLSI method; format: functional
[9] = system: Mycobacteroides abscessus; assay: Antimycobacterial activity against Mycobacterium abscessus ATCC 19977 assessed as inhibition zone diameter at 800 ng after 3 days by disc diffusion method; format: functional
[10] = system: Mycobacteroides abscessus; assay: Antimycobacterial activity against Mycobacterium abscessus ATCC 19977 assessed as inhibition zone diameter at <3 ng after 3 days by disc diffusion method; format: functional, organism-based
[11] = Antimycobacterial activity against Mycobacterium abscessus subsp. massiliense assessed as reduction in microbial growth by CLSI method; format: functional; conditions: Mycobacteroides abscessus
[12] = system: Mycobacteroides abscessus; assay: Antimycobacterial activity against Mycobacterium abscessus ATCC 19977 assessed as inhibition zone diameter at 25 ng after 3 days by disc diffusion method; format: functional
[13] = system: Mycobacteroides abscessus; assay: Antimycobacterial activity against Mycobacterium abscessus ATCC 19977 assessed as inhibition zone diameter at 400 ng after 3 days by disc diffusion method; format: functional
[14] = system: Mycobacteroides abscessus; assay: Antimycobacterial activity against Mycobacterium abscessus FM0058 clinical isolate assessed as inhibition zone diameter at 800 ng after 3 days by disc diffusion method; format: functional
[15] = system: Mycobacteroides abscessus; assay: Antimycobacterial activity against Mycobacterium abscessus ATCC 19977 assessed as inhibition zone diameter at 50 ng after 3 days by disc diffusion method; format: functional
[16] = system: Mycobacteroides abscessus; assay: Antimycobacterial activity against Mycobacterium abscessus ATCC 19977 assessed as inhibition zone diameter at 100 ng after 3 days by disc diffusion method; format: functional
[17] = Antimycobacterial activity against Mycobacterium abscessus subsp. abscessus assessed as reduction in microbial growth by CLSI method; format: functional; conditions: Mycobacteroides abscessus
[18] = system: Mycolicibacterium fortuitum; assay: Antimycobacterial activity against Mycobacterium fortuitum assessed as reduction in microbial growth by CLSI method; format: functional
[19] = system: Mycobacteroides abscessus; assay: Antimycobacterial activity against Mycobacterium abscessus ATCC 19977 assessed as inhibition zone diameter at 1.56 ng after 3 days by disc diffusion method; format: functional
[20] = system: Mycobacteroides abscessus; assay: Antimycobacterial activity against Mycobacterium abscessus ATCC 19977 assessed as inhibition zone diameter at 200 ng after 3 days by disc diffusion method; format: functional
[21] = system: Mycobacteroides abscessus; assay: Antimycobacterial activity against Mycobacterium abscessus FM0058 clinical isolate assessed as inhibition zone diameter at 6.25 ng after 3 days by disc diffusion method; format: functional
[22] = system: Mycobacteroides abscessus; assay: Antimycobacterial activity against Mycobacterium abscessus ATCC 19977 assessed as inhibition zone diameter at 12.5 ng after 3 days by disc diffusion method; format: functional
[23] = system: Mycobacteroides abscessus; assay: Antimycobacterial activity against Mycobacterium abscessus FM0058 clinical isolate assessed as inhibition zone diameter at 400 ng after 3 days by disc diffusion method; format: functional
[24] = system: Mycobacteroides abscessus; assay: Antimycobacterial activity against Mycobacterium abscessus FM0058 clinical isolate assessed as inhibition zone diameter at <3 ng after 3 days by disc diffusion method; format: functional, organism-based
[25] = system: Mycobacteroides abscessus; assay: Antimycobacterial activity against Mycobacterium abscessus FM0058 clinical isolate assessed as inhibition zone diameter at 25 ng after 3 days by disc diffusion method; format: functional
[26] = system: Mycobacteroides abscessus; assay: Antimycobacterial activity against Mycobacterium abscessus FM0058 clinical isolate assessed as inhibition zone diameter at 200 ng after 3 days by disc diffusion method; format: functional
[27] = system: Mycolicibacterium smegmatis; assay: Antimycobacterial activity against Mycobacterium smegmatis assessed as reduction in microbial growth by CLSI method; format: functional
[28] = Drug metabolism in Mycobacterium abscessus ATCC 19977 assessed as C23 ribosylated derivative formation by LC/MS analysis relative to control; format: ADME; conditions: Mycobacteroides abscessus
[29] = Drug metabolism in Mycobacterium abscessus ATCC 19977 assessed as adenine ribosylated diphosphate derivative formation by LC/MS analysis; format: ADME; conditions: Mycobacteroides abscessus

Row | SMILES | diameter of the inhibition zone (DIZ) [1] [mm] | diameter of the inhibition zone (DIZ) [2] [mm] | diameter of the inhibition zone (DIZ) [3] [mm] | diameter of the inhibition zone (DIZ) [4] [mm] | diameter of the inhibition zone (DIZ) [5] [mm] | MIC [6] [µg/mL] | diameter of the inhibition zone (DIZ) [7] [mm] | diameter of the inhibition zone (DIZ) [8] [mm] | MIC (Mycobacteroides chelonae) [µg/mL] | diameter of the inhibition zone (DIZ) [9] [mm] | diameter of the inhibition zone (DIZ) [10] | MIC [11] [µg/mL] | diameter of the inhibition zone (DIZ) [12] [mm] | diameter of the inhibition zone (DIZ) [13] [mm] | diameter of the inhibition zone (DIZ) [14] [mm] | diameter of the inhibition zone (DIZ) [15] [mm] | diameter of the inhibition zone (DIZ) [16] [mm] | MIC [17] [µg/mL] | MIC [18] [µg/mL] | MIC [27] [µg/mL] | other results
1 | CO[C@H]1/C=C/O[C@@]2(C)Oc3c(C)c(O)c4c(c3C2=O)C(=O)C(N2CCOCC2)=C(NC(=O)/C(C)=C\C=C\[C@H](C)[C@H](O)[C@@H](C)[C@@H](O)[C@@H](C)[C@H](OC(=O)NCc2cc(-c3ccccc3)no2)[C@@H]1C)C4=O | 17 | 0 | 0 | 0 | 0 | 0.125 | 13 | 0 | 0.5 | 24 | inactive | 0.5 | 0 | 20 | >30 | 7 | 12 | 0.5 | 0.0625 |  | diameter of the inhibition zone (DIZ) [19]: 0 mm; diameter of the inhibition zone (DIZ) [20]: 16 mm; diameter of the inhibition zone (DIZ) [21]: 0 mm; diameter of the inhibition zone (DIZ) [22]: 0 mm; diameter of the inhibition zone (DIZ) [23]: 26 mm; diameter of the inhibition zone (DIZ) [24]: inactive; diameter of the inhibition zone (DIZ) [25]: 7 mm; diameter of the inhibition zone (DIZ) [26]: 21 mm
2 | COc1ccccc1-c1cc(CNC(=O)O[C@H]2[C@H](C)[C@H](O)[C@H](C)[C@@H](O)[C@@H](C)/C=C/C=C(/C)C(=O)NC3=C(N4CCOCC4)C(=O)c4c(c(O)c(C)c5c4C(=O)[C@@](C)(O/C=C/[C@H](OC)[C@H]2C)O5)C3=O)on1 |  |  |  |  |  | 16 |  |  | 64 |  |  | 64 |  |  |  |  |  | 64 | 0.25 | 0.12 | 
3 | CO[C@H]1/C=C/O[C@@]2(C)Oc3c(C)c(O)c4c(c3C2=O)C(=O)C(N2CCOCC2)=C(NC(=O)/C(C)=C\C=C\[C@H](C)[C@H](O)[C@@H](C)[C@@H](O)[C@@H](C)[C@H](OC(=O)NCc2ccc(N(C)C)cc2)[C@@H]1C)C4=O |  |  |  |  |  | 8 |  |  | 16 |  |  | 8 |  |  |  |  |  | 8 | 1 | 0.06 | 
4 | CO[C@H]1/C=C/O[C@@]2(C)Oc3c(C)c(O)c4c(c3C2=O)C(=O)C(N2CCOCC2)=C(NC(=O)/C(C)=C\C=C\[C@H](C)[C@H](O)[C@@H](C)[C@@H](O)[C@@H](C)[C@H](OC(=O)NC2CCN(Cc3ccccc3)CC2)[C@@H]1C)C4=O | 24 | 0 | 0 | 0 | 16 | 0.0625 | 22 | 0 | < 0.03 | >30 | inactive | 0.25 | 16 | >30 | >30 | 21 | 24 | < 0.03 | < 0.03 | 0.12 | Drug metabolism [28]: Metabolite_Notdetected; diameter of the inhibition zone (DIZ) [19]: 0 mm; Drug metabolism [29]: Metabolite_Notdetected; diameter of the inhibition zone (DIZ) [20]: >30 mm; diameter of the inhibition zone (DIZ) [21]: 11 mm; diameter of the inhibition zone (DIZ) [22]: 13 mm; diameter of the inhibition zone (DIZ) [23]: >30 mm; diameter of the inhibition zone (DIZ) [24]: inactive; diameter of the inhibition zone (DIZ) [25]: 20 mm; diameter of the inhibition zone (DIZ) [26]: 29 mm
5 | CO[C@H]1/C=C/O[C@@]2(C)Oc3c(C)c(O)c4c(O)c(c(/C=N/N5CCN(C)CC5)c(O)c4c3C2=O)NC(=O)/C(C)=C\C=C\[C@H](C)[C@H](O)[C@@H](C)[C@@H](O)[C@@H](C)[C@H](OC(C)=O)[C@@H]1C [RIFAMPIN] | 0 | 0 | 0 | 0 | 0 | > 64 | 0 | 0 | > 64 | 0 | inactive | > 64 | 0 | 0 | 0 | 0 | 0 | > 64 | > 64 | 32 | diameter of the inhibition zone (DIZ) [19]: 0 mm; Drug metabolism [29]: Metabolite_Notdetected; diameter of the inhibition zone (DIZ) [20]: 0 mm; diameter of the inhibition zone (DIZ) [21]: 0 mm; diameter of the inhibition zone (DIZ) [22]: 0 mm; diameter of the inhibition zone (DIZ) [23]: 0 mm; diameter of the inhibition zone (DIZ) [24]: inactive; diameter of the inhibition zone (DIZ) [25]: 0 mm; diameter of the inhibition zone (DIZ) [26]: 0 mm
6 | CO[C@H]1/C=C/O[C@@]2(C)Oc3c(C)c(O)c4c(c3C2=O)C(=O)C(N2CCOCC2)=C(NC(=O)/C(C)=C\C=C\[C@H](C)[C@H](O)[C@@H](C)[C@@H](O)[C@@H](C)[C@H](OC(=O)NCCN(C(C)C)C(C)C)[C@@H]1C)C4=O |  |  |  |  |  | 0.25 |  |  | 1 |  |  | 1 |  |  |  |  |  | 0.5 | 8 |  | 
7 | CO[C@H]1/C=C/O[C@@]2(C)Oc3c(C)c(O)c4c(c3C2=O)C(=O)C(N2CCOCC2)=C(NC(=O)/C(C)=C\C=C\[C@H](C)[C@H](O)[C@@H](C)[C@@H](O)[C@@H](C)[C@H](OC(=O)NCc2cc(-c3ccccn3)no2)[C@@H]1C)C4=O | 20 | 0 | 0 | 0 | 0 | 8 | 9 | 0 | 64 | 27 | inactive | 8 | 0 | 24 | >30 | 14 | 16 | 8 | 1 | 0.5 | diameter of the inhibition zone (DIZ) [19]: 0 mm; diameter of the inhibition zone (DIZ) [20]: 20 mm; diameter of the inhibition zone (DIZ) [21]: 0 mm; diameter of the inhibition zone (DIZ) [22]: 0 mm; diameter of the inhibition zone (DIZ) [23]: 30 mm; diameter of the inhibition zone (DIZ) [24]: inactive; diameter of the inhibition zone (DIZ) [25]: 0 mm; diameter of the inhibition zone (DIZ) [26]: 25 mm
8 | COc1ccc(CNC(=O)O[C@H]2[C@H](C)[C@H](O)[C@H](C)[C@@H](O)[C@@H](C)/C=C/C=C(/C)C(=O)NC3=C(N4CCOCC4)C(=O)c4c(c(O)c(C)c5c4C(=O)[C@@](C)(O/C=C/[C@H](OC)[C@H]2C)O5)C3=O)cc1 |  |  |  |  |  | 16 |  |  | > 64 |  |  | 8 |  |  |  |  |  | 64 | 1 | 0.06 | 
